Laboratory results: patent US9174925B2 (priority 2011, dated 2015)
Read-outs that look alike come from different tables or passages of the source.

Legend:
[1] = system: Epstein-Barr virus; settings: reported in literature (Hirota M. et al., 1979); cited from earlier work
[2] = reported in literature (Hirota M. et al., 1979); cited from earlier work
[3] = system: NK92 cells; assay type: cell-based, human

Question: Which Epstein-Barr virus activation [1] does the source give for `CCCCCCCCCCCCCCCC(=O)O[C@@H]1[C@@H](C)[C@@]2(O)[C@@H](C=C(CO)C[C@]3(O)C(=O)C(C)=C[C@@H]23)[C@H]2[C@]1(OC(C)=O)[C@]2(C)CO` [Compound 4, 12-O-hexadecanoyl-16-hydroxyphorbol-13-acetate] here?
Answer: Epstein-Barr virus activation

Question: What about the piscicidal effects [2] of the same molecule?
Answer: piscicidal effects

Question: For `CCCCCCCCCCCCCCCC(=O)O[C@@H]1[C@@H](C)[C@@]2(O)[C@@H](C(=O)C(CO)=C[C@]3(O)C(=O)C(C)=C[C@@H]23)[C@H]2[C@]1(OC(C)=O)[C@@]2(C)CO` [Compound 1, 12-O-hexadecanoyl-7-oxo-5-ene-16-hydroxyphorbol-13-acetate], which “activity for inducing IFN-γ production” value ([3]; 40 nM, FIG. 8) is on record?
Answer: high activity for inducing IFN-γ production

Question: Which “activity for inducing IFN-γ production” value ([3]; 1.6 μM, FIG. 7) does the source give for `CCCCCCCCCCCCCCCC(=O)OC1C(C)C2(O)C(C(=O)C(CO)=CC3(O)C(=O)C(C)=CC32)C2C(C)(C)C12OC(C)=O` (centres unmarked) [Compound 2, 12-O-hexadecanoyl-7-oxo-5-ene-phorbol-13-acetate] here?
Answer: had activity for inducing IFN-γ production

Question: Which “activity for inducing IFN-γ production” value ([3]; 8 μM, FIG. 7) does the source give for `CCCCCCCCCCCCCCCC(=O)O[C@@H]1[C@@H](C)[C@]2(O)[C@@H]3C=C(C)C(=O)[C@@H]3CC(CO)=C[C@H]2[C@H]2[C@]1(OC(C)=O)[C@@]2(C)CO` [Compound 5, 12-O-hexadecanoyl-4-deoxy-4α-16-hydroxyphorbol-13-acetate] here?
Answer: had activity for inducing IFN-γ production
